Measurements reported in ChEMBL document CHEMBL1201862, “PubChem BioAssay data set” (2004).
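48-hour exposure; five concentrations; linearly interpolated endpoints. GI50 is the concentration that inhibits growth by half.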 Calls of active or inactive are those of the source. No stated cut-off is given here; in the data, active = GI50 up to about 1.1 µM and inactive = higher.

How the values were obtained:
Test in all cases: NCI tumour cell line growth inhibition, 48 h
[1] = tested on: COLO 205
[2] = tested on: RPMI-8226
[3] = tested on: CCRF-CEM
[4] = tested on: RXF 393
[5] = tested on: KM12
[6] = tested on: ACHN
[7] = tested on: TK-10
[8] = tested on: NCI-H23
[9] = tested on: HCT-15
[10] = tested on: SNB-75
[11] = tested on: SK-MEL-2
[12] = tested on: DLD-1
[13] = tested on: SW-620
[14] = tested on: SN12C
[15] = tested on: UO-31
[16] = tested on: SNB-19
[17] = tested on: OVCAR-8
[18] = tested on: NCI/ADR-RES
[19] = tested on: MCF7
[20] = tested on: BT-549

| SMILES | GI50 [1] | GI50 [2] | GI50 [3] | GI50 [4] | GI50 [5] | GI50 [6] | GI50 [7] | GI50 [8] | GI50 [9] [µM] | GI50 [10] | GI50 [11] | GI50 [12] | GI50 [13] | GI50 [14] | GI50 [15] | GI50 [16] | GI50 [17] | GI50 [18] | GI50 [19] | GI50 [20] |
| --- | --- | --- | --- | --- | --- | --- | --- | --- | --- | --- | --- | --- | --- | --- | --- | --- | --- | --- | --- | --- |
| NC(=O)OCC(COc1ccc(Cl)cc1)OC(=O)c1ccccc1Cl (stereo not given) | 17.5 µM (inactive) | 21.8 µM (inactive) | 22.3 µM (inactive) | 12.6 µM (inactive) | 21.6 µM (inactive) | 31.6 µM (inactive) | 28.8 µM (inactive) | 20.5 µM (inactive) | 16.4 | 41.7 µM (inactive) | 17.3 µM (inactive) | 18.5 µM (inactive) | 19 µM (inactive) | 16.6 µM (inactive) | 22.3 µM (inactive) | 28.1 µM (inactive) | 23.4 µM (inactive) |  |  |  |
| O=C1c2ccccc2CC1C1(O)C(=O)Nc2ccccc21 (stereo not given) | > 100 µM (inactive) | > 100 µM (inactive) |  | > 100 µM (inactive) |  | > 100 µM (inactive) | > 100 µM (inactive) | > 100 µM (inactive) | > 100 | 87.3 µM (inactive) | > 100 µM (inactive) | > 100 µM (inactive) | > 100 µM (inactive) | > 100 µM (inactive) | 34.6 µM (inactive) | > 100 µM (inactive) | > 100 µM (inactive) |  |  |  |
| C/C(=N\N)C(CN1CCOCC1)C(c1ccccc1)c1c(O)c2ccccc2oc1=O (stereo not given) | > 44.8 µM (inactive) | > 67.1 µM (inactive) | 23.3 µM (inactive) | 3.38 µM (inactive) | > 81.1 µM (inactive) | > 100 µM (inactive) | > 100 µM (inactive) | > 100 µM (inactive) | > 100 | 42.9 µM (inactive) | > 100 µM (inactive) | > 100 µM (inactive) | > 100 µM (inactive) | > 100 µM (inactive) | 44.3 µM (inactive) | > 100 µM (inactive) | > 90.6 µM (inactive) | 65.9 µM (inactive) | 56 µM (inactive) | 32.3 µM (inactive) |
| CC(C)(C)[C@H]1CC[C@@](O)(c2ccccc2)CC1.CC(C)(C)[C@H]1CC[C@](O)(c2ccccc2)CC1 | 17.7 µM (inactive) | 21.1 µM (inactive) | 26.5 µM (inactive) | 18.6 µM (inactive) | 22.8 µM (inactive) | 20 µM (inactive) | 19.4 µM (inactive) | 30.1 µM (inactive) | 23.9 | 24.3 µM (inactive) | 14.7 µM (inactive) | 25.4 µM (inactive) | 3.74 µM (inactive) | 18.8 µM (inactive) | 31.5 µM (inactive) | 25.2 µM (inactive) | 18.7 µM (inactive) |  |  |  |
| Cc1ccc2oc(=O)cc(CC(=O)O)c2c1 | > 100 µM (inactive) | > 100 µM (inactive) | > 100 µM (inactive) | > 100 µM (inactive) | > 100 µM (inactive) | > 100 µM (inactive) | > 100 µM (inactive) | > 100 µM (inactive) | > 100 | > 100 µM (inactive) | > 100 µM (inactive) | > 100 µM (inactive) | > 100 µM (inactive) | > 100 µM (inactive) |  | > 100 µM (inactive) | > 100 µM (inactive) |  |  |  |
| CC(C(=O)c1ccc(Cl)cc1)C1OC(=O)C(Cl)=C1Cl (stereo not given) | 23.9 µM (inactive) | 26.9 µM (inactive) | 19 µM (inactive) | 19.7 µM (inactive) | 33.9 µM (inactive) | 41.3 µM (inactive) | 37.2 µM (inactive) | 25.2 µM (inactive) | 21.5 | 22.1 µM (inactive) | 23.2 µM (inactive) | 21.6 µM (inactive) | 34.5 µM (inactive) | 24.6 µM (inactive) | 95.9 µM (inactive) | 85.1 µM (inactive) | 32.5 µM (inactive) |  |  |  |
| CC(C)(C)C1CCN(C(=O)c2ccccc2)CC1 | > 100 µM (inactive) | 46 µM (inactive) | > 100 µM (inactive) | 76 µM (inactive) | > 100 µM (inactive) | > 100 µM (inactive) | > 100 µM (inactive) | > 100 µM (inactive) | 57.5 | 69 µM (inactive) | > 100 µM (inactive) | > 100 µM (inactive) | > 100 µM (inactive) | > 100 µM (inactive) | > 100 µM (inactive) | > 100 µM (inactive) | > 100 µM (inactive) |  |  |  |
| O=C1Nc2cc(F)ccc2C1=O | 72.3 µM (inactive) | > 100 µM (inactive) | > 100 µM (inactive) | > 100 µM (inactive) | > 100 µM (inactive) | > 100 µM (inactive) | > 100 µM (inactive) | > 100 µM (inactive) | > 100 | > 100 µM (inactive) | > 100 µM (inactive) | > 100 µM (inactive) | 73.3 µM (inactive) | > 100 µM (inactive) | > 100 µM (inactive) | > 100 µM (inactive) | > 100 µM (inactive) |  |  |  |
| CC(C)(C)NNc1c([N+](=O)[O-])cnn(-c2ccccc2)c1=O | 4.63 µM (inactive) | 3.96 µM (inactive) | 0.944 µM (active) | 8.32 µM (inactive) | 10.4 µM (inactive) | 8.71 µM (inactive) | 22 µM (inactive) | 4.82 µM (inactive) | 3.95 | 9.86 µM (inactive) | > 10 µM (inactive) | 4.56 µM (inactive) | 1.76 µM (inactive) | 3.14 µM (inactive) | 6.12 µM (inactive) | 11.2 µM (inactive) | 2.26 µM (inactive) |  | 2.92 µM (inactive) | 1.41 µM (inactive) |
| CCC(CC)n1cc(C(=O)NC(=O)NCCCCCOC(=O)CCCCCCCCCCC(=O)OCCCCCNC(=O)NC(=O)c2cn(C(CC)CC)c(=O)[nH]c2=O)c(=O)[nH]c1=O | > 100 µM (inactive) | > 100 µM (inactive) | > 100 µM (inactive) | 29.1 µM (inactive) | > 100 µM (inactive) | > 100 µM (inactive) | > 100 µM (inactive) | > 100 µM (inactive) | > 100 | 22.8 µM (inactive) |  | > 100 µM (inactive) | > 100 µM (inactive) | > 100 µM (inactive) | > 100 µM (inactive) | 27.7 µM (inactive) | 64.3 µM (inactive) |  |  |  |
| [O-][S+]1Nc2c(Cl)cc(Cl)c(Cl)c2S1 (stereo not given) | > 100 µM (inactive) | > 100 µM (inactive) | 39.3 µM (inactive) | > 100 µM (inactive) | > 100 µM (inactive) | > 100 µM (inactive) | > 100 µM (inactive) | > 100 µM (inactive) | 44.1 | 22.7 µM (inactive) | > 100 µM (inactive) | 95.7 µM (inactive) | 5.62 µM (inactive) | > 100 µM (inactive) | 86.9 µM (inactive) | > 100 µM (inactive) | > 100 µM (inactive) |  |  |  |
| COc1ccc2oc(C(=O)O)c3c2c1CCC3 | > 100 µM (inactive) | > 100 µM (inactive) | > 100 µM (inactive) | > 100 µM (inactive) |  | > 100 µM (inactive) | > 100 µM (inactive) | > 100 µM (inactive) | > 100 | > 100 µM (inactive) |  | > 100 µM (inactive) | > 100 µM (inactive) | > 100 µM (inactive) |  | > 100 µM (inactive) | > 100 µM (inactive) |  |  |  |
| COc1cc(/C=C2\Cc3ccccc3C2=O)cc(OC)c1OC | > 100 µM (inactive) | > 100 µM (inactive) | > 100 µM (inactive) | > 100 µM (inactive) | > 100 µM (inactive) | > 100 µM (inactive) | > 100 µM (inactive) | > 100 µM (inactive) | > 100 | 51.5 µM (inactive) | > 100 µM (inactive) | > 100 µM (inactive) | > 100 µM (inactive) | > 100 µM (inactive) | > 100 µM (inactive) | > 100 µM (inactive) | > 100 µM (inactive) |  |  |  |
| C/C=C/C=C\C(=O)C1c2cccc(O)c2C(=O)c2c(O)cc(C)cc21 (stereo not given) | 1.64 µM (inactive) | 2.14 µM (inactive) | 1.27 µM (inactive) | 1.37 µM (inactive) | 0.425 µM (active) | 1.35 µM (inactive) | 1.7 µM (inactive) | 1.76 µM (inactive) | 1.76 | 1.29 µM (inactive) | 1.01 µM (active) | 1.9 µM (inactive) | 1.19 µM (inactive) | 2.33 µM (inactive) | 1.71 µM (inactive) | 0.442 µM (active) | 1.81 µM (inactive) |  |  |  |
| CC(Nc1ccc(S(=O)(=O)NC(=N)N)cc1)c1c2ccccc2nc2ccccc12 (stereo not given) | 57.7 µM (inactive) | 16.3 µM (inactive) | 19.3 µM (inactive) | 26.9 µM (inactive) | 34.8 µM (inactive) | 24.7 µM (inactive) | 47.4 µM (inactive) | 22.5 µM (inactive) | 29.2 | 26.8 µM (inactive) | 22.5 µM (inactive) | 18.1 µM (inactive) | 41.3 µM (inactive) | 30 µM (inactive) | 19 µM (inactive) | 40 µM (inactive) | 23.9 µM (inactive) |  |  |  |
| CC12OC3(C)OC(=O)C(c4ccccc4)(O1)C3(C)O2 (stereo not given) | > 100 µM (inactive) | > 100 µM (inactive) | > 100 µM (inactive) | > 100 µM (inactive) | > 100 µM (inactive) | > 100 µM (inactive) | > 100 µM (inactive) | > 100 µM (inactive) | > 100 | > 100 µM (inactive) | > 100 µM (inactive) | > 100 µM (inactive) | > 100 µM (inactive) | > 100 µM (inactive) | > 100 µM (inactive) | > 100 µM (inactive) | > 100 µM (inactive) |  |  |  |
| CCCCCCCCC1C(C)c2c([nH]c3ccccc23)C2C(=O)N(c3ccccc3)C(=O)C21 (stereo not given) |  | 3.4 µM (inactive) | 2.76 µM (inactive) | 2.38 µM (inactive) | 3.71 µM (inactive) | 11.5 µM (inactive) | 20.1 µM (inactive) | 3.73 µM (inactive) | 11.2 | 19 µM (inactive) | 16 µM (inactive) | 18.9 µM (inactive) | 14.8 µM (inactive) | 11.4 µM (inactive) | 15.2 µM (inactive) |  | 11.1 µM (inactive) |  |  |  |
